The values that follow are results of earlier work, collected in patent US7153867B2, “Use of nitrogen substituted thalidomide analogs for the treatment of macular degenerator” (Celgene Corporation, priority 2001, dated 2006).

In the data set the test system is vascular endothelial cell proliferation. Particulars: in vitro; endothelial versus tumor cell proliferation.

Molecules are shown by their SMILES.

With `CO[C@@H]1[C@H](OC(=O)NC(=O)CCl)CC[C@]2(CO2)[C@H]1[C@@]1(C)O[C@@H]1CC=C(C)C` [AGM-1470], the “half-maximal inhibition of vascular endothelial cell proliferation at lower concentration than tumor cell proliferation” value is listed as 4 logs.
